Biological target: T1, PI3Kα H1047R (T47D cells) (Homo sapiens, UniProt P42336, H1047R)
T1 construct: endogenous in cells; host or cells: T47D cells
Experiment: PI3Kα cellular assay: pAKT HTRF in T47D cells after EGF stimulation
Type: cell-based
Settings: for IC50: T47D cells (PI3Kα H1047R), pAKT S473 HTRF, EGF stimulation
Outline: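 pAKT read by HTRF in lysates of EGF-stimulated (20 ng/mL, 10 min) T47D H1047R cells. Before stimulation, serum-starved cells (16 h) received compound for 1 h at 37 °C, dosed from 10,000 nM down to 0.5 nM in 3-fold steps.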

T1 sequence (P42336 whole entry H1047R): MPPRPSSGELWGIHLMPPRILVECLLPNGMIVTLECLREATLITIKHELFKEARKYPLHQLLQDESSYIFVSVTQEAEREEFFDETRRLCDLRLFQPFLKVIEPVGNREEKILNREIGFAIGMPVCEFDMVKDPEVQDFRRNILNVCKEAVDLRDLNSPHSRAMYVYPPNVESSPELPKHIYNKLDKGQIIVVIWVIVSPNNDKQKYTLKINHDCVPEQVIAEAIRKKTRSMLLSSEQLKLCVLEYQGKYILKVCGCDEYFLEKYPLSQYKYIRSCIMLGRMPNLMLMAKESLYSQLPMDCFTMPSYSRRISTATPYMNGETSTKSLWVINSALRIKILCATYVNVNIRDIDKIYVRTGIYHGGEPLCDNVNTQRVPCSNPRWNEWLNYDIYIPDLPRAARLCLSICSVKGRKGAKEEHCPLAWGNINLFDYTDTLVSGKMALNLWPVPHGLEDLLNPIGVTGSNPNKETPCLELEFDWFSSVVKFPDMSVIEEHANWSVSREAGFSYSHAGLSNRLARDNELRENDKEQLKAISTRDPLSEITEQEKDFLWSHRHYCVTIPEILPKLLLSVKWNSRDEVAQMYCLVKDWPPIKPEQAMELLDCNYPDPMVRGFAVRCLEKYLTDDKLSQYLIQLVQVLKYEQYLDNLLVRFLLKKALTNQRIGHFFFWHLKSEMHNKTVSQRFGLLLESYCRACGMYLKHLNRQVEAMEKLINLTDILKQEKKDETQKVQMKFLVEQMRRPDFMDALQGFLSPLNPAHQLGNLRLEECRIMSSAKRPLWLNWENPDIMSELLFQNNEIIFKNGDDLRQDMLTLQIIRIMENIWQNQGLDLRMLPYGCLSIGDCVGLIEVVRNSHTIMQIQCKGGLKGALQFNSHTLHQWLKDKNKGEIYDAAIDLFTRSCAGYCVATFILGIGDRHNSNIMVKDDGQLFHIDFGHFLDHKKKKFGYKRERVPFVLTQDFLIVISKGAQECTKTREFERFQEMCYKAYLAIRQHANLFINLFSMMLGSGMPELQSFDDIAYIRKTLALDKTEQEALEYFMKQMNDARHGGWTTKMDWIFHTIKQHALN
T1 sequence (P27986 whole entry partner): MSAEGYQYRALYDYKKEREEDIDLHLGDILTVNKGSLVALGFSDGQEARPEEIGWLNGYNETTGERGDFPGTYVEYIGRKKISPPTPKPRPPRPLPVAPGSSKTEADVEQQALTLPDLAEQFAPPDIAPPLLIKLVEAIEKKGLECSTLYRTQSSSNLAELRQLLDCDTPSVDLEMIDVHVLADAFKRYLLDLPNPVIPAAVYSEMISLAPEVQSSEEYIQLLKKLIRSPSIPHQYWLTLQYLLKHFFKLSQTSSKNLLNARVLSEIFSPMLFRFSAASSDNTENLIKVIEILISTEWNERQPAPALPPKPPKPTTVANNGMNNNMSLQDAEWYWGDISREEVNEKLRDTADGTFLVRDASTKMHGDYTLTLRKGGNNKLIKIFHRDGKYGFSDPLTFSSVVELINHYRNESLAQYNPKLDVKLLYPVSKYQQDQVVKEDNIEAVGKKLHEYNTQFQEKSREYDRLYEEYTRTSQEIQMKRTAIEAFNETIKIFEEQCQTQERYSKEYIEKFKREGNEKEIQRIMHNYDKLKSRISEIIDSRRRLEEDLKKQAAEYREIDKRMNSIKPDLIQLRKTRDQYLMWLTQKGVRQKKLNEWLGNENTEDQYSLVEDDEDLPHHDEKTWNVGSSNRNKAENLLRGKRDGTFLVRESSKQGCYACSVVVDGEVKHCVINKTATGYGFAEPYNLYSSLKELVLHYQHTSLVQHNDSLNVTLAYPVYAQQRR

SMILES | IC50 | T47D pAKT S473 HTRF IC50 (H1047R): T47D (H1047R) selectivity over SKBR3 (WT)
Cc1cc(C(C)Nc2ccccc2-c2ccnnc2)c2nc(-c3ccc4c(C)cn(C)c4c3)c(C)c(=O)n2c1 (centres unmarked) [Compound 1132] | > 2000 nM | C (C denotes ≤5-fold)
Cc1cc([C@@H](C)Nc2ccccc2C(N)=O)c2nc(-c3cnc(C)c(Cl)c3)c(C)c(=O)n2c1 [Compound 1135] | 100 to 500 nM | A (A denotes >20-fold)
Cc1cc([C@@H](C)Nc2ccccc2-c2ccnnc2)c2nc(-c3cnc(C)c(Cl)c3)c(C)c(=O)n2c1 [Compound 1141] | – | C (C denotes ≤5-fold)
Cc1cc(C(C)Nc2ccccc2-c2ccnnc2)c2nc(-c3cccnc3)c(C)c(=O)n2c1 (centres unmarked) [Compound 1143] | 100 to 500 nM | A (A denotes >20-fold)
Cc1cc([C@@H](C)Nc2ccccc2-c2ccnnc2)c2nc(-c3cccnc3)c(C)c(=O)n2c1 [Compound 1144] | > 2000 nM | C (C denotes ≤5-fold)
Cc1cc([C@H](C)Nc2ccccc2-c2ccnnc2)c2nc(-c3cccnc3)c(C)c(=O)n2c1 [Compound 1145] | 100 to 500 nM | A (A denotes >20-fold)
CC1=CN2C(=O)C(C)C(c3ccc(CCC(C)(C)C)cc3)N=C2C([C@H](C)Nc2ccccc2C(=O)O)=C1 (some centres unmarked) [Compound 1151] | – | C (C denotes ≤5-fold)
Cc1cc([C@@H](C)Nc2ccccc2C(N)=O)c2nc(-c3ccc(C4CC4)nc3)c(C)c(=O)n2c1 [Compound 1153] | 100 to 500 nM | A (A denotes >20-fold)
Cc1cc([C@@H](C)Nc2ccccc2C(=O)O)c2nc(-c3ccnc(C4CC4)c3)cc(=O)n2c1 [Compound 1155] | > 2000 nM | C (C denotes ≤5-fold)
Cc1cc([C@H](C)Nc2ccccc2C(=O)O)c2nc(-c3ccnc(C4CC4)c3)cc(=O)n2c1 [Compound 1156] | < 100 nM | A (A denotes >20-fold)
Cc1cc(C(C)Nc2ccccc2C(=O)O)c2nc(N3Cc4ccccc4C3)c(C#N)c(=O)n2c1 (centres unmarked) [Compound 1160] | < 100 nM | A (A denotes >20-fold)
Cc1cc([C@@H](C)Nc2ccccc2)c2nc(N(C)Cc3ccccc3)c(C)c(=O)n2c1 [Compound 1163] | 100 to 500 nM | A (A denotes >20-fold)
Cc1cc(C(C)Nc2ccccc2C(=O)O)c2nc(-c3cc(F)cc(C4CC4)c3)c(C)c(=O)n2c1 (centres unmarked) [Compound 1169] | < 100 nM | A (A denotes >20-fold)
Cc1cc(C(C)Nc2cc(F)ccc2C(=O)O)c2nc(-c3ccnc(C4CC4)c3)c(C)c(=O)n2c1 (centres unmarked) [Compound 1182] | < 100 nM | A (A denotes >20-fold)
CC#Cc1nc2c(C(C)Nc3ccccc3C(=O)O)cc(C)cn2c(=O)c1C (centres unmarked) [Compound 1185] | 500 to 2000 nM | B (B denotes 20-fold≥value>5-fold)

Second part, the molecule after the results:

IC50 | T47D pAKT S473 HTRF IC50 (H1047R): T47D (H1047R) selectivity over SKBR3 (WT) | SMILES
> 2000 nM | C (C denotes ≤5-fold) | Cc1cc([C@@H](C)Nc2ccccc2-c2ccnnc2)c2nc(-c3ccc4c(C)cn(C)c4c3)c(C)c(=O)n2c1 [Compound 1133]
500 to 2000 nM | B (B denotes 20-fold≥value>5-fold) | Cc1cc([C@H](C)Nc2ccccc2-c2ccnnc2)c2nc(-c3ccc4c(C)cn(C)c4c3)c(C)c(=O)n2c1 [Compound 1134]
> 2000 nM | C (C denotes ≤5-fold) | Cc1cc([C@H](C)Nc2ccccc2C(N)=O)c2nc(-c3cnc(C)c(Cl)c3)c(C)c(=O)n2c1 [Compound 1136]
< 100 nM | A (A denotes >20-fold) | Cc1cc([C@@H](C)Nc2ccccc2C(N)=O)c2nc(-c3cccc(C#N)c3)c(C)c(=O)n2c1 [Compound 1137]
> 2000 nM | C (C denotes ≤5-fold) | Cc1cc([C@H](C)Nc2ccccc2C(N)=O)c2nc(-c3cccc(C#N)c3)c(C)c(=O)n2c1 [Compound 1138]
– | A (A denotes >20-fold) | Cc1cc(C(C)Nc2ccccc2-c2ccnnc2)c2nc(-c3ccc(C)c(Cl)c3)c(C)c(=O)n2c1 (centres unmarked) [Compound 1140]
< 100 nM | A (A denotes >20-fold) | Cc1cc([C@@H](C)Nc2ccccc2C(=O)O)c2nc(-c3ccc(C4CCOCC4)nc3)c(C)c(=O)n2c1 [Compound 1146]
> 2000 nM | C (C denotes ≤5-fold) | Cc1cc([C@H](C)Nc2ccccc2C(=O)O)c2nc(-c3ccc(C4CCOCC4)nc3)c(C)c(=O)n2c1 [Compound 1147]
> 2000 nM | C (C denotes ≤5-fold) | Cc1cc([C@H](C)Nc2ccccc2C(=O)O)c2nc(-c3ccc(C(F)F)nc3)c(C)c(=O)n2c1 [Compound 1149]
100 to 500 nM | A (A denotes >20-fold) | Cc1cc(C(C)Nc2ccccc2C(N)=O)c2nc(-c3cccnc3)c(C)c(=O)n2c1 (centres unmarked) [Compound 1152]
> 2000 nM | C (C denotes ≤5-fold) | Cc1cc([C@H](C)Nc2ccccc2C(N)=O)c2nc(-c3ccc(C4CC4)nc3)c(C)c(=O)n2c1 [Compound 1154]
100 to 500 nM | A (A denotes >20-fold) | Cc1cc([C@@H](C)Nc2ccccc2C(=O)O)c2nc(-c3cnc(C)c(Cl)c3)cc(=O)n2c1 [Compound 1157]
> 2000 nM | C (C denotes ≤5-fold) | Cc1cc([C@H](C)Nc2ccccc2C(=O)O)c2nc(-c3cnc(C)c(Cl)c3)cc(=O)n2c1 [Compound 1158]
> 2000 nM | C (C denotes ≤5-fold) | CCC(Nc1ccccc1S(N)(=O)=O)c1cc(C)cn2c(=O)cc(N3CCOCC3)nc12 (centres unmarked) [Compound 1159]
< 100 nM | A (A denotes >20-fold) | Cc1cc(C(C)Nc2ccccc2C(=O)O)c2nc(-c3ccc(C(C)C)nc3)c(C)c(=O)n2c1 (centres unmarked) [Compound 1178]
100 to 500 nM | A (A denotes >20-fold) | Cc1cc(C(C)Nc2ccccc2C(=O)O)c2nc(C#CC3CC3)c(C)c(=O)n2c1 (centres unmarked) [Compound 1186]
< 100 nM | A (A denotes >20-fold) | C#Cc1ccc(-c2nc3c(C(C)Nc4ccccc4C(=O)O)cc(C)cn3c(=O)c2C)cn1 (centres unmarked) [Compound 1191]
< 100 nM | A (A denotes >20-fold) | Cc1cc(C(C)Nc2cc(F)ccc2C(=O)O)c2nc(-c3cccc(F)c3)c(C)c(=O)n2c1 (centres unmarked) [Compound 1197]
> 2000 nM | C (C denotes ≤5-fold) | Cc1cc([C@@H](C)Nc2ccccc2C(=O)O)c2nc(-c3ccnc(C)n3)c(C)c(=O)n2c1 [Compound 1198]
